Assay results: paper PMC12035805, “A Water-Soluble Aggregation-Induced Emission Photosensitizer with Intrinsic Antibacterial Activity as an Antiplanktonic and Antibiofilm Therapeutic Agent” (Journal of Medicinal Chemistry, 2025)
≈ marks a conversion by molar mass, not a printed value. Read-outs that look alike come from different tables or passages of the source.

Legend:
[1] = test system: P. aeruginosa (ATCC 27853); experiment: MIC assay (broth microdilution, CLSI), without light; format: cell-based; settings: Pseudomonas aeruginosa, ATCC27853, light or radiation study; without light irradiation; read-out: MIC against P. aeruginosa (ATCC 27853)
Protocol: (§1) The MIC assays of TPA-1 were conducted according to the broth microdilution methods described in the Clinical and Laboratory Standards Institute (CLSI) standard. A single colony of S. aureus (ATCC 29213), methicillin-resistant S. aureus (BAA 41), or P. aeruginosa (ATCC 27853) on an LB agar plate was picked and suspended in Mueller–Hinton Broth (MHB). The bacterial culture was grown overnight at 37 °C. The next day, the bacteria culture was diluted 100 times in fresh MHB and grown to the mid log phase. Bacteria in the mid log phase were further diluted to 5 × 10^6 CFU/mL in cation-adjusted MHB (S. aureus) or MHB (P. aeruginosa). Ten μL of the diluted bacteria were added to a 96-well plate containing 90 μL of serial diluted TPA-1 in the corresponding medium. The plate was incubated overnight at 37 °C. The MICs of the TPA compounds were the concentrations at which no apparent bacteria were observed by the naked eye. Different concentrations of LTA were also added to examine the change in MIC values of TPA-1 against S. aureus. The experiments were conducted in triplicate.

S. aureus (ATCC 29213) = experiment: as above; format: cell-based; settings: Staphylococcus aureus, ATCC29213, light or radiation study, read-out: MIC against S. aureus (ATCC 29213)
Protocol: as §1

[2] = Hemolysis of human erythrocytes; format: cell-based; settings: 200 μM compound, 1 h, 37 °C
Protocol: (§2) The human erythrocyte concentrate was prepared according to the kit manual from the Biomaterial Hemolytic Assay Kit (Hemoscan). After the human erythrocytes had been washed and diluted with manufacture buffer, 100 μL of erythrocytes (10%) were added into 100 μL of various concentrations of compounds in PBS. 1% of Triton X (1%) was the positive control, while PBS was the negative control. The erythrocytes were then gently mixed with the TPA compounds and further incubated for an hour at 37 °C. After that, the erythrocytes were centrifuged (1000 rpm, 5 min), and 20 μL of supernatant was added to 180 μL of PBS in a 96-well plate. The optical density at 380, 415, and 450 nm was measured by a plate reader. The final OD value of the compounds was calculated as (2 × OD415) – (OD450 + OD380) where OD380, OD415, and OD450 are the optical density of the solution at 380, 415, and 450 nm, respectively. The hemolysis rates of the compounds were calculated as (ODcompound – ODPBS)/(ODTritonX – ODPBS) × 100% where ODcompound, ODPBS, and ODTritonX are the final OD values of the erythrocytes mixed with TPA compounds, PBS, and 1% Triton X, respectively. The experiment was performed in triplicate.

human erythrocytes = experiment: Hemolysis of human erythrocytes; format: cell-based
Protocol: as §2

[3] = Cytotoxicity (MTT) assay against HFF-1 cells; format: cell-based; settings: human, no irradiation, read-out: 50% cytotoxicity concentration (CC50) against HFF-1 cells
Protocol: The cytotoxicity of TPA-1, TPA-0, and TPA-NC-1 against HFF-1 cells was evaluated using the 3-(4,5-dimethylthiazol-2-yl)-2,5-diphenyltetrazolium bromide (MTT) assay kit from ThermoFisher Scientific. In general, HFF-1 cells (MEM, 10% FBS, and 1% penicillin-streptomycin) were seeded in a 96-well plate with a density of 3000 cells/well overnight at 37 °C with 5% CO2. Then, the cells were treated with different concentrations of compounds for 24 h. MTT (10 μL, 5 mg/mL) was added to the medium, and the cells were further incubated for 3 h. The medium was then replaced by DMSO (100 μL). After gently shaking the plate for 30 s, the optical density of the solutions at 570 nm was measured by a BMG Labtech CLARIOstar microplate reader. The cell viability was calculated as (ODcompound – ODDMSO)/(ODmedium - ODDMSO) × 100% where ODcompound, ODmedium, and ODDMSO are the optical densities of the treated cell, nontreated cells, and DMSO at 570 nm, respectively. The experiment was conducted in triplicate. The CC50 values were calculated using GraphPad Prism 8.

[4] = Log P, 1-octanol/water partition; format: physicochemical; settings: 1-octanol/water (1:1)
Protocol: The log P values of TPA compounds were obtained according to previously reported methods.[66] 1-octanol was first presaturated with water. Equal volume and concentration of TPA-NC-1, TPA-0, and TPA-1 were added to a 1-octanol/water (1:1) mixture and vortexed for 1 min. The mixture was then centrifuged for 5 min at 13,500 rpm. After that, the absorptions of the compound in the 1-octanol and water phases were measured. The concentrations of the compound in both phases were calculated by using the absorption calibration curve of the corresponding compound. Log P = log (concentration of the compound in 1-octanol/concentration of the compound in water).

[5] = test system: methicillin-resistant S. aureus (BAA 41); experiment: MIC assay (broth microdilution, CLSI), without light; format: cell-based; settings: Staphylococcus aureus, BAA41, light or radiation study, read-out: MIC against methicillin-resistant S. aureus (BAA 41)
Protocol: as §1

S. aureus = experiment: Resistance development assay on S. aureus; format: cell-based, Staphylococcus aureus
Protocol: The MICs for TPA-1 and norfloxacin against S. aureus were first determined by the above-mentioned method. The wells with 0.5 × MIC of compounds were transferred to 1 mL fresh MHB and incubated under darkness for 3–4 h at 37 °C. The bacteria were then used to conduct a MIC assay again. The experiments were repeated for 20 days. The fold changes in the MIC values of the compounds were recorded. The experiments were performed in duplicate.

SMILES	hemolysis at 1 h, 200 µM [2] [%]	HC50 (human erythrocytes) [µM]	CC50 at 24 h [3] [µM]	logP [4]	further results
C[C@@H](O)[C@H]1C(=O)N2C(C(=O)O)=C(S[C@@H]3CN[C@H](C(=O)N(C)C)C3)[C@H](C)[C@H]12 [Meropenem, reference compound]	–	–	–	–	MIC [1]: 2.5 µM (≈ 0.959 µg/mL); MIC (S. aureus (ATCC 29213); without light irradiation): 0.312 µM (≈ 0.12 µg/mL)
CC[n+]1c(/C=C/c2ccc(-c3ccc(N(c4ccc(OCCC[N+](C)(C)C)cc4)c4ccc(OCCC[N+](C)(C)C)cc4)cc3)s2)sc2ccccc21.[Br-].[Br-].[Br-] [TPA-0]	< 3	> 200	120 ± 20	-1.7	–
CC[n+]1c(/C=C/c2ccc(-c3ccc(N(c4ccc(OC)cc4)c4ccc(OC)cc4)cc3)s2)sc2ccccc21.[Br-] [TPA-NC-1, reference compound]	> 60	< 200	7.8 ± 0.7	1.1	–
CN[C@H](CC(C)C)C(=O)N[C@H]1C(=O)N[C@@H](CC(N)=O)C(=O)N[C@H]2C(=O)N[C@H]3C(=O)N[C@H](C(=O)N[C@H](C(=O)O)c4cc(O)cc(O)c4-c4cc3ccc4O)[C@H](O)c3ccc(c(Cl)c3)Oc3cc2cc(c3O[C@@H]2O[C@H](CO)[C@@H](O)[C@H](O)[C@H]2O[C@H]2C[C@](C)(N)[C@H](O)[C@H](C)O2)Oc2ccc(cc2Cl)[C@H]1O [Vancomycin, reference compound]	–	–	–	–	MIC [5]: 0.625 µM (≈ 0.906 µg/mL); MIC (S. aureus (ATCC 29213)): 0.625 µM (≈ 0.906 µg/mL)
CCn1cc(C(=O)O)c(=O)c2cc(F)c(N3CCNCC3)cc21 [norfloxacin, reference compound]	–	–	–	–	increase of MIC against S. aureus after treatment for 20 days (S. aureus; 20 days of passages at 0.5 × MIC): 1024 fold; MIC (S. aureus; Staphylococcus aureus, read-out: initial MIC against S. aureus in resistance development assay): 0.5 µM (≈ 0.16 µg/mL)
